The source of these data is ChEMBL document CHEMBL2150974 (J Med Chem, 2012).

Assay [1] concerns the target T1, Mitogen-activated protein kinase 14 (Homo sapiens, UniProt Q16539). Briefly: Inhibition of p38alpha-dependent TNFalpha production in human whole blood.
Assay [2] has as its target T1, Mitogen-activated protein kinase 14. Briefly: Inhibition of p38alpha by immunosorbent based kinase assay.

T1 sequence (Q16539 whole entry): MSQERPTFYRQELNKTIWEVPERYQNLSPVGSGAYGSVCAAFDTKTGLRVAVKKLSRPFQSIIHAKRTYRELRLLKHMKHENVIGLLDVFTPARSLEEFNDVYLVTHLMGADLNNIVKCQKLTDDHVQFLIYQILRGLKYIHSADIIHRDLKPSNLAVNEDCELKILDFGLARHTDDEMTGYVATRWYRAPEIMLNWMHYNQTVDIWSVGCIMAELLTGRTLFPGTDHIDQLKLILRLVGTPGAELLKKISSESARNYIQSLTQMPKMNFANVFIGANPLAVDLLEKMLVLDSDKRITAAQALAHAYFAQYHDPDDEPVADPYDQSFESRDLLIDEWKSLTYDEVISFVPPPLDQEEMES

Consider `COc1ccc2c(c1)C(=O)c1ccc(Nc3ccc(F)cc3F)cc1CC2`, for which the IC50 – broadly, the concentration needed to halve the response being measured – was 1200 nM in assay [1] and 20 nM in assay [2].
In the case of `O=C1c2ccc(Nc3ccc(F)cc3Cl)cc2CCc2ccc(O)cc21`, the figures for the IC50 in assay [1] and in assay [2] were 3800 nM and 560 nM, respectively.
As to `O=C1c2ccc(Nc3ccccc3)cc2CCc2ccc(O)cc21`, the IC50 in assay [1] was determined as 2200 nM; in assay [2], 60 nM.
Take `O=C1c2ccc(Nc3ccc(F)cc3F)cc2CCc2ccc(OCCN3CCOCC3)cc21`: the IC50 in assay [1] was 80 nM; in assay [2] it was 10 nM.
As for `COc1ccc2c(c1)C(=O)c1ccc(Nc3ccccc3N)cc1CC2`, the results for the IC50 in assay [1] and in assay [2] were 1500 nM and 40 nM, respectively.
In the case of `COc1ccc2c(c1)C(=O)c1ccc(Nc3ccccc3F)cc1CC2`, the values for the IC50 in assay [1] and in assay [2] were 4900 nM and 70 nM, respectively.
Regarding `Nc1ccccc1Nc1ccc2c(c1)CCc1ccc(OC[C@@H](O)CO)cc1C2=O`, the IC50 in assay [1] amounted to 170 nM; in assay [2], 8 nM.
For the compound `O=C1c2ccc(Nc3ccccc3Cl)cc2CCc2ccc(O)cc21`, the IC50 in assay [1] turned out to be 7500 nM; in assay [2], 140 nM.
Turning to `COc1ccc2c(c1)C(=O)c1ccc(Nc3ccc(F)c(F)c3F)cc1CC2`, the IC50 came out at 81000 nM in assay [1] and 3530 nM in assay [2].
Turning to `O=C1c2ccc(Nc3ccc(F)cc3F)cc2CCc2ccc(OCC[C@@H](O)CO)cc21`, the figures for the IC50 in assay [1] and in assay [2] were 80 nM and 10 nM, respectively.
For `COc1ccc2c(c1)CCc1cc(Nc3ccc(F)cc3F)ccc1C2=O` the same measures were 10200 nM and 20 nM.
With `COc1ccc2c(c1)CCc1cc(Nc3ccccc3N)ccc1C2=O`, the IC50 in assay [1] turned out to be 12300 nM; in assay [2] it was 70 nM.
For the compound `CC1(C)OC[C@@H](COc2ccc3c(c2)C(=O)c2ccc(Nc4ccc(F)cc4F)cc2CC3)O1`, the IC50 in assay [1] turned out to be 230 nM; in assay [2] it was 40 nM.
Take `COc1ccc2c(c1)C(=O)c1ccc(Nc3ccccc3)cc1CC2`: the IC50 in assay [1] turned out to be 3200 nM; in assay [2] it was 70 nM.
`Nc1ccccc1Nc1ccc2c(c1)CCc1cc(OC[C@H](O)CO)ccc1C2=O`: the IC50 in assay [1] is 6000 nM; in assay [2], 30 nM.
For the compound `O=C1c2ccc(Nc3ccc(F)cc3F)cc2CCc2cc(OCCN3CCOCC3)ccc21`, the IC50 amounted to 40000 nM in assay [1] and 20 nM in assay [2].
Taken in the same sequence, the figures for `COc1ccc2c(c1)C(=O)c1ccc(Nc3ccc(F)cc3N)cc1CC2` were 1900 nM and 40 nM.
Regarding `O=C1c2ccc(Oc3ccc(F)cc3F)cc2CCc2ccc(OC[C@@H](O)CO)cc21`, the IC50 in assay [1] turned out to be 6700 nM; in assay [2], 40 nM.
Regarding `CC1(C)OC[C@@H](COc2ccc3c(c2)C(=O)c2ccc(Nc4ccccc4N)cc2CC3)O1`, the IC50 in assay [1] was determined as 190 nM; in assay [2], 60 nM.
For the compound `COc1ccc2c(c1)C(=O)c1ccc(Oc3ccc(F)cc3F)cc1CC2`, inhibition in assay [2] was half-maximal at 100 nM (IC50).
For the compound `O=C1c2ccc(Oc3ccc(F)cc3F)cc2CCc2ccc(OCCN3CCOCC3)cc21`, the IC50 is 4500 nM in assay [1] and 80 nM in assay [2].
For `O=C1c2ccc(Nc3ccc(F)cc3F)cc2CCc2cc(OCCCO)ccc21` the same measures were 19500 nM and 30 nM.
For `O=C1c2ccc(Nc3ccc(F)cc3F)cc2CCc2ccc(O)cc21` the same measures were 700 nM and 20 nM.
On to `O=c1c2ccc(Nc3ccc(F)cc3F)cc2ccc2ccc(O)cc12`, for which the results for the concentration for half-maximal inhibition (IC50) in assay [1] and in assay [2] were 26700 nM and 300 nM, respectively.
For the compound `CC1(C)OC[C@H](COc2ccc3c(c2)CCc2cc(Nc4ccccc4N)ccc2C3=O)O1`, the IC50 worked out at 93600 nM in assay [1] and 80 nM in assay [2].
For `COc1ccc2c(c1)C(=O)c1ccc(Nc3ccccc3OC)cc1CC2`, the 50% inhibitory concentration (IC50) worked out at 7600 nM in assay [1] and 380 nM in assay [2].
Taken in the same sequence, the figures for `O=C1c2ccc(Nc3ccc(F)cc3F)cc2CCc2cc(OCCO)ccc21` were 4700 nM and 20 nM.
